Laboratory results published in ChEMBL document CHEMBL1154536, “Optimization of 4,6-bis-anilino-1H-pyrrolo[2,3-d]pyrimidine IGF-1R tyrosine kinase inhibitors towards JNK selectivity” (Bioorg Med Chem Lett, 2009).

What was measured:
[1] = target: T1, Insulin-like growth factor 1 receptor (Homo sapiens, UniProt P08069); assay: Inhibition of IGF-1R
[2] = target: Mitogen-activated protein kinase 8 (Homo sapiens, UniProt P45983); assay: Inhibition of His-tagged JNK1
[3] = target: T1, Insulin-like growth factor 1 receptor; assay: Inhibition of phospho IGFR1 by cellular assay
[4] = Clearance in rat at 2.6 mg/kg, iv and […] mg/kg, po; assay type: ADME, organism-based; conditions: in vivo
Rattus norvegicus [5] = assay: Dose normalized AUC (0 to 8 hrs) in rat at 13 mg/kg, po; assay type: ADME, organism-based; design: time < 8 hr, dose 13 mg/kg, route oral; conditions: in vivo
[6] = Cmax in rat at 13 mg/kg, po; assay type: ADME, organism-based; design: dose 13 mg/kg, route oral; conditions: in vivo
[7] = Oral bioavailability in rat at 13 mg/kg, po; assay type: ADME, organism-based; conditions: in vivo
[8] = target: T1, Insulin-like growth factor 1 receptor; assay: Inhibition of phospho IGFR1 by cellular assay in presence of 2%HSA
[9] = Clearance in rat at 2.5 mg/kg, iv and […] mg/kg, po; assay type: ADME, organism-based; conditions: in vivo
[10] = Clearance in rat at 2.5 mg/kg, iv and 10 mg/kg, po; assay type: ADME, organism-based; conditions: in vivo
Rattus norvegicus [11] = assay: Dose normalized AUC (0 to 8 hrs) in rat at 10 mg/kg, po; assay type: ADME, organism-based; design: time < 8 hr, dose 10 mg/kg, route oral; conditions: in vivo
[12] = Cmax in rat at 10 mg/kg, po; assay type: ADME, organism-based; design: dose 10 mg/kg, route oral; conditions: in vivo
[13] = Oral bioavailability in rat at 10 mg/kg, po; assay type: ADME, organism-based; conditions: in vivo
[14] = target: Mitogen-activated protein kinase 10 (Homo sapiens, UniProt P53779); assay: Inhibition of human His-tagged JNK3
Rattus norvegicus [15] = assay: Dose normalized AUC (0 to 8 hrs) in rat at 9 mg/kg, po; assay type: ADME, organism-based; design: time < 8 hr, dose 9 mg/kg, route oral; conditions: in vivo
[16] = Cmax in rat at 9 mg/kg, po; assay type: ADME, organism-based; design: dose 9 mg/kg, route oral; conditions: in vivo
[17] = target: ALK tyrosine kinase receptor (Homo sapiens, UniProt Q9UM73); assay: Inhibition of ALK
Insulin receptor = Insulin receptor (Homo sapiens, UniProt P06213); assay: Inhibition of IR

T1 sequence (P08069 31-736 limits assumed): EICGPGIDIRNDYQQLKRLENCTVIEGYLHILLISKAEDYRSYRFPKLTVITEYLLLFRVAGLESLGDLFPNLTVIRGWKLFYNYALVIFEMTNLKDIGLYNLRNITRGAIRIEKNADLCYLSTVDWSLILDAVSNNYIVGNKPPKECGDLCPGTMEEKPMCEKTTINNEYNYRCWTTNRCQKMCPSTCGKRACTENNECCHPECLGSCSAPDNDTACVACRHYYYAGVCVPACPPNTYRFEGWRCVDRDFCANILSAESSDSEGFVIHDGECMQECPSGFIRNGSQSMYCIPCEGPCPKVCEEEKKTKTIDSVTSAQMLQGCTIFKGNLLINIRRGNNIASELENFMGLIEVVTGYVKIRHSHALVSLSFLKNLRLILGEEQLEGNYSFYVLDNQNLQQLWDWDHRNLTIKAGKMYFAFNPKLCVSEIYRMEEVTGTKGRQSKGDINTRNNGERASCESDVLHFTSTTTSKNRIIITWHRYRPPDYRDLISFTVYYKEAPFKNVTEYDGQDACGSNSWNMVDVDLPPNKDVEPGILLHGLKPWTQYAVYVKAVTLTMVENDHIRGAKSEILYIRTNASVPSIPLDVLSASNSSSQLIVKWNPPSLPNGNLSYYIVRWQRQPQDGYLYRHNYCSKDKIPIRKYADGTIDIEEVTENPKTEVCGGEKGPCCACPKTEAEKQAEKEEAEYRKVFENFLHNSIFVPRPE
T1 sequence (P08069 741-1367 limits assumed): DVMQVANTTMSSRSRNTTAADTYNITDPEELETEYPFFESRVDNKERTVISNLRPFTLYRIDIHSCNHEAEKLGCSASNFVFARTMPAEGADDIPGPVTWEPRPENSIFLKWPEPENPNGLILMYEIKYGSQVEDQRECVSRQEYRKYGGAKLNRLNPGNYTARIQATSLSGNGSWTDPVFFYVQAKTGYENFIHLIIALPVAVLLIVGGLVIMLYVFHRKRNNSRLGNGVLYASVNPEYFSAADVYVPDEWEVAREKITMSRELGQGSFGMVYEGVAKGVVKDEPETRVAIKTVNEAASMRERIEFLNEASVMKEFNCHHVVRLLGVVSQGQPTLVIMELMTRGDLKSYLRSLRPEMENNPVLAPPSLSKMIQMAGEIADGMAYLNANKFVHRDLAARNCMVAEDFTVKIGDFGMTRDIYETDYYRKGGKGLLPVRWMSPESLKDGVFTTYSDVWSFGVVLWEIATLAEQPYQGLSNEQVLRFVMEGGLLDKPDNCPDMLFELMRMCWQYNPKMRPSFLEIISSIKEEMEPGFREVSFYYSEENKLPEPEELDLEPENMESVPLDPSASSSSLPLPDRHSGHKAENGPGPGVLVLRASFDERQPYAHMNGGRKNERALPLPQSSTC
Sequence of Mitogen-activated protein kinase 10 (P53779 whole entry): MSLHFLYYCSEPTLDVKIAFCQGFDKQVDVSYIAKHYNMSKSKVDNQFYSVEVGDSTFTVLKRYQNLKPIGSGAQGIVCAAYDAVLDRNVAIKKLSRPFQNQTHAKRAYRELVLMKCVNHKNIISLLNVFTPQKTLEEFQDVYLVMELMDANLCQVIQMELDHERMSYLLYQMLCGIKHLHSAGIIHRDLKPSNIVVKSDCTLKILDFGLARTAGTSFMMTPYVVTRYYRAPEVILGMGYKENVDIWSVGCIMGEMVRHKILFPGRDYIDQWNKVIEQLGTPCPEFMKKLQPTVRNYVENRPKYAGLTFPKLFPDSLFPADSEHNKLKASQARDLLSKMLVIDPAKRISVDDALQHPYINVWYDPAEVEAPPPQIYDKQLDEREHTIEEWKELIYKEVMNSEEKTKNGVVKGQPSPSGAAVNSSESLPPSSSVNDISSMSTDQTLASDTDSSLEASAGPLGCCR
Sequence of Mitogen-activated protein kinase 8 (P45983 whole entry): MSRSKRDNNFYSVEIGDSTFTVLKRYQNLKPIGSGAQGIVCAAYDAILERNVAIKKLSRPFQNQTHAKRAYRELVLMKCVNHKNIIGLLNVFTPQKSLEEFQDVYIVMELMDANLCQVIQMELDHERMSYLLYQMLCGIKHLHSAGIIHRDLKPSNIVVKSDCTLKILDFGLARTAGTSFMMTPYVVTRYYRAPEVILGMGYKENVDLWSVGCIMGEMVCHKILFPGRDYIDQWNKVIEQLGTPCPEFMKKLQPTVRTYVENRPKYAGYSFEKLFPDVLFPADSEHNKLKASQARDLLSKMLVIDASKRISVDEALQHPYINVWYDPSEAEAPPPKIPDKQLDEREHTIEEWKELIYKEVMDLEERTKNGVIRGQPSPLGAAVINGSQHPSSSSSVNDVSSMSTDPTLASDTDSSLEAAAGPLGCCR
Sequence of ALK tyrosine kinase receptor (Q9UM73 whole entry): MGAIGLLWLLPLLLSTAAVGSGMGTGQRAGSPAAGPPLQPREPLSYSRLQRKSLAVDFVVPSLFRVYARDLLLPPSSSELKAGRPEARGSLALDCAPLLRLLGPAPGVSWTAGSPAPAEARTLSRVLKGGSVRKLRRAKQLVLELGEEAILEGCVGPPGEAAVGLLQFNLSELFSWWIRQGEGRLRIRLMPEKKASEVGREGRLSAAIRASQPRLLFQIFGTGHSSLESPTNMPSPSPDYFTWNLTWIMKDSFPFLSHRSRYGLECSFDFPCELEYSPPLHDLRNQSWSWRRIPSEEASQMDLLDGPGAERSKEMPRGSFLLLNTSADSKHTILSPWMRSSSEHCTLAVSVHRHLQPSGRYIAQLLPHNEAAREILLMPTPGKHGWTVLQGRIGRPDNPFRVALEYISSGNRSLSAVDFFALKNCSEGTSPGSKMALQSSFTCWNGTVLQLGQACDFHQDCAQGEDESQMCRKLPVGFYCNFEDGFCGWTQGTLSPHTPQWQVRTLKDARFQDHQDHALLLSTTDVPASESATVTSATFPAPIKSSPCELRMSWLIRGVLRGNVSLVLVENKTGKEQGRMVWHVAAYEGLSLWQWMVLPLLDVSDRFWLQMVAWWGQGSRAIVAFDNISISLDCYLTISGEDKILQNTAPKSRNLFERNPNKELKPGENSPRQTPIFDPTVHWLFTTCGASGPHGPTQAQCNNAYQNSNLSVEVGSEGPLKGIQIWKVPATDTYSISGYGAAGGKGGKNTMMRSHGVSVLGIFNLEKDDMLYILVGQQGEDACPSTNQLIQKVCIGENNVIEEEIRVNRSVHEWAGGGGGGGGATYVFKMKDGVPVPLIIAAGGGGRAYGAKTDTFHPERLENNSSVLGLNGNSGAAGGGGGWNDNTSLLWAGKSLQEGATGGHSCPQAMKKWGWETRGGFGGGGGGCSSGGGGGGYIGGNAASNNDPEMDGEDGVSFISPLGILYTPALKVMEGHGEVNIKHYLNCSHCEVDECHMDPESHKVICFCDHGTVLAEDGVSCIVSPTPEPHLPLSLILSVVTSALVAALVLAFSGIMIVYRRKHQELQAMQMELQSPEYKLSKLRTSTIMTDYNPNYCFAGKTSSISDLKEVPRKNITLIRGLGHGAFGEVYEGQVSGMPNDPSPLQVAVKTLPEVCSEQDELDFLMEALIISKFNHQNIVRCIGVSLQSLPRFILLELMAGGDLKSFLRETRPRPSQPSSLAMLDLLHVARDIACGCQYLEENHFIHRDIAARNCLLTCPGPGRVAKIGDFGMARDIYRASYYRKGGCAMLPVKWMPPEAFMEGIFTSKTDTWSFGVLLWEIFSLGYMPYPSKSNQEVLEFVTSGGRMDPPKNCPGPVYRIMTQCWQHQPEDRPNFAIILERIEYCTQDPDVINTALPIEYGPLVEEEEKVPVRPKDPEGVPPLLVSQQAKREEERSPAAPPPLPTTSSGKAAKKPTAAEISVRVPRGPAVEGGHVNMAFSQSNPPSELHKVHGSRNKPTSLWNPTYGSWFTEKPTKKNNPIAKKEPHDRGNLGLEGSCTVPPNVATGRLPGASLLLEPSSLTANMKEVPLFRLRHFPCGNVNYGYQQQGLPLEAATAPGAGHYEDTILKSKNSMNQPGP

SMILES | IC50 [1] | IC50 [2] | IC50 [3] | also measured
COc1cc2c(cc1Nc1nc(Nc3cccc(F)c3C(N)=O)c3cc[nH]c3n1)N(C(=O)CCN(C)C)CCC2 | 0.01 µM | 7.94 µM | 0.209 µM | 
COc1ccc(OCCCN(C)C)cc1Nc1nc(Nc2cccc(F)c2C(N)=O)c2cc[nH]c2n1 | 0.008 µM | 0.631 µM | 0.081 µM | clearance [9]: 112 mL/min/kg; AUC (Rattus norvegicus [5]): 85 ng·h/mL/mg/kg; Cmax [6]: 192 ng/mL; bioavailability [7]: 60%
COc1cc(Cl)c(OCCCN(C)C)cc1Nc1nc(Nc2cccc(F)c2C(N)=O)c2cc[nH]c2n1 | 0.013 µM | 1.26 µM | 0.895 µM | 
CNC(=O)c1c(F)cccc1Nc1nc(Nc2cc3c(cc2OC)CCN3C(=O)CN(C)C)nc2[nH]ccc12 |  |  |  | clearance [10]: 73 mL/min/kg; AUC (Rattus norvegicus [11]): 210 ng·h/mL/mg/kg; Cmax [12]: 365 ng/mL; bioavailability [13]: 98%
CCCN1CCC(Oc2cc(Nc3nc(Nc4cccc(F)c4C(N)=O)c4cc[nH]c4n3)c(OC)cc2Cl)CC1 [GSK-1713088A] | 0.025 µM | 3.98 µM | 5.37 µM | 
COc1ccc(N(C)C(=O)CN(C)C)cc1Nc1nc(Nc2cccc(F)c2C(N)=O)c2cc[nH]c2n1 | 0.05 µM | 10 µM | 0.377 µM | 
COc1ccc(NC(=O)CN(C)C)cc1Nc1nc(Nc2cccc(F)c2C(N)=O)c2cc[nH]c2n1 | 0.001 µM | 3.16 µM | 0.028 µM | 
COc1cc2c(cc1Nc1nc(Nc3cccc(F)c3C(N)=O)c3cc[nH]c3n1)N(C(=O)CN1CCC1)CC2 | 0.001 µM | 2 µM | 0.128 µM | 
COc1cc2c(cc1Nc1nc(Nc3cccc(F)c3C(N)=O)c3cc[nH]c3n1)N(C(=O)CCN1CCN(C(C)C)CC1)CC2 | 0.004 µM | 1.59 µM | 0.651 µM | 
COc1cc(C)c(CCCN(C)C)cc1Nc1nc(Nc2cccc(F)c2C(N)=O)c2cc[nH]c2n1 | 0.013 µM | 0.501 µM | 0.84 µM | 
CNCC(=O)N1CCc2cc(OC)c(Nc3nc(Nc4cccc(F)c4C(N)=O)c4cc[nH]c4n3)cc21 | 0.002 µM | 2 µM | 0.079 µM | 
COc1ccc(N2CCN(C(C)C)CC2)cc1Nc1nc(Nc2cccc(F)c2C(N)=O)c2cc[nH]c2n1 |  | 3.16 µM | 0.201 µM | IC50 [14]: 5.01 µM; AUC (Rattus norvegicus [15]): 133 ng·h/mL/mg/kg; Cmax [16]: 233 ng/mL
COc1cc2c(cc1Nc1nc(Nc3cccc(F)c3C(N)=O)c3cc[nH]c3n1)N(C(=O)CN1CCN(C(C)C)CC1)CC2 [GSK-1751853A] | 0.032 µM | 1.59 µM | 0.376 µM | 
COc1cc2c(cc1Nc1nc(Nc3cccc(F)c3C(N)=O)c3cc[nH]c3n1)N(C(C)=O)CCC2 | 0.025 µM | 7.94 µM | 1.98 µM | 
CCN(C)CC(=O)N1CCc2cc(OC)c(Nc3nc(Nc4cccc(F)c4C(N)=O)c4cc[nH]c4n3)cc21 | 0.003 µM | 3.16 µM | 0.019 µM | 
COc1cc2c(cc1Nc1nc(Nc3cccc(F)c3C(N)=O)c3cc[nH]c3n1)N(C(=O)CN(C)OC)CC2 | 0.05 µM | 0.794 µM | 0.877 µM | 
COc1cc2c(cc1Nc1nc(Nc3cccc(F)c3C(N)=O)c3cc[nH]c3n1)N(C(=O)CN)CC2 | 0.004 µM | 1 µM | 0.765 µM | 
COc1ccc(CCCN(C)C)cc1Nc1nc(Nc2cccc(F)c2C(N)=O)c2cc[nH]c2n1 | 0.013 µM | 5.01 µM | 0.212 µM | 
CCCN1CCC(Oc2ccc(OC)c(Nc3nc(Nc4cccc(F)c4C(N)=O)c4cc[nH]c4n3)c2)CC1 | 0.006 µM | 1.26 µM | 0.929 µM | 

More lines, in order of falling IC50 [2], values ahead:

IC50 [1] | IC50 [2] | IC50 [3] | SMILES | also measured
0.063 µM | 10 µM | 1.73 µM | COc1cc(C)c(N(C)C(=O)CN(C)C)cc1Nc1nc(Nc2cccc(F)c2C(N)=O)c2cc[nH]c2n1 [GSK-2219385A] | 
0.001 µM | 6.31 µM | 0.016 µM | COc1cc2c(cc1Nc1nc(Nc3cccc(F)c3C(N)=O)c3cc[nH]c3n1)N(C(=O)CN(C)C)CCC2 | 
 | 3.89 µM |  | COc1cc(C)c(N2CCN(C(C)C)CC2)cc1Nc1nc(Nc2cccc(F)c2C(N)=O)c2cc[nH]c2n1 | IC50 [14]: 6.31 µM
0.001 µM | 2.51 µM | 0.011 µM | COc1cc2c(cc1Nc1nc(Nc3cccc(F)c3C(N)=O)c3cc[nH]c3n1)N(C(=O)CN1CCCCC1)CCC2 | 
0.0005 µM | 2 µM | 0.038 µM | COc1cc(C)c(NC(=O)CN(C)C)cc1Nc1nc(Nc2cccc(F)c2C(N)=O)c2cc[nH]c2n1 [GSK-2213727A] | 
 | 1.59 µM | 0.056 µM | COc1cc2c(cc1Nc1nc(Nc3cccc(F)c3C(N)=O)c3cc[nH]c3n1)N(C(=O)CN(C)C)CC2 | clearance [4]: 48 mL/min/kg; AUC (Rattus norvegicus [5]): 190 ng·h/mL/mg/kg; Cmax [6]: 455 ng/mL; bioavailability [7]: 61%; IC50 [8]: 0.487 µM
0.001 µM | 1.26 µM | 0.024 µM | COc1cc2c(cc1Nc1nc(Nc3cccc(F)c3C(N)=O)c3cc[nH]c3n1)N(C(=O)CN1CCCC1)CC2 | 
0.002 µM | 1 µM | 0.085 µM | CCN(CC)CC(=O)N1CCc2cc(OC)c(Nc3nc(Nc4cccc(F)c4C(N)=O)c4cc[nH]c4n3)cc21 | 
0.008 µM | 0.794 µM | 0.191 µM | COc1cc2c(cc1Nc1nc(Nc3cccc(F)c3C(N)=O)c3cc[nH]c3n1)N(C(=O)CCN(C)C)CC2 | 
0.032 µM | 0.631 µM | 7.76 µM | COc1cc2c(cc1Nc1nc(Nc3cccc(F)c3C(N)=O)c3cc[nH]c3n1)N(C(=O)Cn1ccnc1)CC2 | 
0.006 µM | 0.251 µM | 0.298 µM | COc1cc2c(cc1Nc1nc(Nc3cccc(F)c3C(N)=O)c3cc[nH]c3n1)N(C(=O)CCN1CCOCC1)CC2 | 
0.006 µM | 0.126 µM | 0.278 µM | COc1cc2c(cc1Nc1nc(Nc3cccc(F)c3C(N)=O)c3cc[nH]c3n1)N(C(C)=O)CC2 | 
0.013 µM | 0.126 µM | 0.072 µM | COc1cc2c(cc1Nc1nc(Nc3cccc(F)c3C(N)=O)c3cc[nH]c3n1)N(C(=O)CN1CCOCC1)CC2 | 
0.04 µM | 0.1 µM | 0.794 µM | COc1cc2c(cc1Nc1nc(Nc3cccc(F)c3C(N)=O)c3cc[nH]c3n1)N(CCN(C)C)CC2 | 
 | 0.013 µM |  | COc1cc(N2CCN(C(C)C)CC2)ccc1Nc1nc(Nc2cccc(F)c2C(N)=O)c2cc[nH]c2n1 | IC50 [17]: 0.0005 µM; IC50 (Insulin receptor): 0.0016 µM; IC50 [14]: 0.1 µM
